Ends that are not written are not given here. R1 = not defined here
What was measured:
[1] = Peptide-induced K+ release from unilamellar liposomes (Example 2); conditions: 22° C.; for % K+ - Release POPC:POPG1:1: POPC:POPG 1:1 liposomes; for % K+ - Release POPC:POPG,3:1: POPC:POPG 3:1 liposomes; for % K+ - Release POPC: POPC liposomes
Procedure: Peptide-induced K′ release from liposomes. Liposomes (see above) were made in 100 nM KCl, 10 mM Tris-HCl, pH 7.5. The external KCl was reduced to less than 0.1 mM by two passages through a PD10 column (Pharmacia Biotech AB, Uppsala, Sweden) equilibrated in NaCl buffer (100 mM NaCl, 10 mM Tris-HCl, pH 7.5). Potassium release from liposomes was detected by a K′-selective microelectrode (Micro-electrode Inc.) and recorded on VHS tape using a pulse-code modulator. Peptides were assayed at 10 μM and 30 μM.
Unilamellar liposomes formed from (i) POPC; (ii) POPC and POPG at a molar ratio of POPC: POPG of 3:1, or (iii) POPC and POPG at a molar ratio of POPC: POPG of 1:1 were prepared in 100 mM KC1 according to the procedure described in Example 1. Peptide-induced K+ release from the liposomes also was detected according to the procedure described in Example 1. All measurements were carried out at 22° C.

[2] = Peptide-induced K+ release from liposomes (Example 1); format: biochemical; conditions: for % K+-release: liposomes POPG/POPC 1:3, 10 mg/ml, loaded with 100 mM KCl, total release with 0.1 M Triton X-100, <2% not detectable
Procedure: Liposomes were prepared from 1-Palmitoyl-2-Oleoyl-sn-Glycero-3-(Phospho-rac-(1-glycerol)) (POPG) and 1-Palmitoyl-2-Oleoyl-sn-Glycero-3-Phosphocholine (POPC) (Avanti Polar Lipids Inc., Birmingham, Ala.). The lipid-chloroform solutions were mixed at a molar ratio of 1:3 (POPG:POPC), dried under N2 and vacuum, sonicated, and taken through freeze-thaw cycles repeated a minimum of 5 times.
Peptide-induced K′ release from liposomes. […] Enzymol., Vol. 235, pgs. 699-713 (1994).
^b Percentage of the intraliposomal K^+ release induced by […] peptides from liposomes (POPG/POPC 1:3, 10 mg/ml) loaded with 100 mM KC1 and dialyzed against 100 mM NaCl buffer. […] . Total K^+ release was obtained with 0.1 M Triton X-100.
A novel approach was developed to measure the membrane activity of peptide 598-616. Peptide-induced release of K^+ from KCl-loaded lipid vesicles was detected using a K^+-selective electrode. The addition of 10 μM wild type peptide 598-616 causes 29% K^+ content release. At a concentration of 30 μM, about 70% K^+ content is released from liposomes (data not shown). For comparison, 10 μM melittin, a lytic component of bee venom, causes 31% K^+ content release.

[3] = Circular dichroism analysis of α-helical content; format: physicochemical; conditions: for secondary structure by CD (in words): aqueous vs liposome environment
Procedure: A. Membrane-Dependent Formation Of An α-Helical Structure By Peptide 598-616 As measured By Circular Dichroism (CD). The plot represents an average of 9 CD spectra for 50 μM peptide 598-616 in an aqueous solution (20 mM NaPO4,pH 7, dashed line), and in presence of liposomal membrane vesicles (POPG/POPC [1:3] liposomes in 20 mM Na2 PO4, pH 7.4; lipid to peptide molar ratio 100:1; solid line). The measurements were obtained for wavelength 195-250 nm at 20 mdeg sensitivity.
The peptides for circular dichroism (CD) analysis were used at a final concentration of 50 μM. The stock solution of extruded liposomes at 50 mg/ml was used. The final peptide-to-lipid molar ratio was 1/100 in 20 mM Na2PO4 buffer. CD spectra were obtained using a Jasco J-600 CD spectrometer. Samples were scanned from 250 nm to 195 nm using cuvettes with a path length of 1 mm. Each result represents an average of 9 scans.
To analyze the secondary structure of the peptides corresponding to MoMuLV cytoplasmic tail segments, the peptides 598-616 and 617-632 were evaluated by CD spectroscopy. The CD spectrum produced by the peptide 598-616 absorption of polarized light in an aqueous environment is characteristic of a random coil conformation (FIG. 2A, dotted line). […] The estimated percent α-helicity for peptide 598-616 is nearly 60%. Similar α-helical properties have been observed for the lytic amphiphilic segments from HIV-1 env cytoplasmic tail and the active component of bee venom, melittin (Eisenberg, et al., Biopolymers, Vol. 29, pgs. 171-177 (1992)). Thus, the computer-predicted α-helical structure for the region 598-616 is confirmed for peptide 598-616 by CD analysis in the presence of membranes.

[4] = Electron paramagnetic resonance analysis of spin labeled peptides with liposomes; format: physicochemical; conditions: for aggregation state by EPR (in words): membrane-bound state or solution
Procedure: B. Spin-Labeled Peptide 598-616 Associates With Membranes As Determined By Electron Paramagnetic Resonance (EPR) Analysis. […]; lipid to peptide molar ratio 100:1; solid line). The arrow marks the position of a small component of free spin.
Spin labeled peptides (50 μM) diluted in buffer (50mM NaPO4, 100 mM NaCl, pH 7.4) were added to the extruded liposomes at a peptide-to-lipid molar ratio of greater than 1/100. X-band electron paramagnetic resonance (EPR) spectra were recorded at room temperature. The spin accessibility parameter (II) was determined for 20 mM nickel ethylenediaminediacetic acid, or NiEDDA, and O2 in equilibrium with air as previously described (Farahbakhsh, et al., Photochemistry and Photobiolocy, Vol. 56, pgs. 1019-1033 (1992)). The topology or context parameter φ was calculated as φ=ln [II(O2)/II(NiEDDA)] (Altenbach, et al., Proc. Nat. Acad. Sci., Vol. 91, pgs. 1667-1671 (1994)).
The structural features of the peptide 598-616 bound to membranes were investigated further by EPR analysis of corresponding peptides modified to contain single R1 nitroxide side chains at the positions indicated in FIG. 2C. For each labeled peptide in solution, the EPR spectrum consisted of three sharp resonance lines characteristic of a random coil for peptides containing R1 (Farahbakhsh, et al., Biochemistry, Vol. 34, pgs. 509-516 (1995)). A representative example is shown by the dotted line in FIG. 2B for the V606-R1 peptide. […] Judging from the line shapes, the contribution from the unbound peptide is very small, less than 1% (arrow FIG. 2B). All peptides 598-616 gave similar effects, although the individual line shapes varied (data not shown).
Spin-spin interactions between nitroxides result in spectral broadening over and above that due to motional effects (Mchaourab, et al., Biochemistry, Vol. 36, pgs. 307-316 (1997)).

NIH3T3 cells [5] = assay: Syncytia formation in env-transfected NIH3T3 cells; format: cell-based; conditions: relative fusion efficiency, normalized to 616* = 100
NIH3T3 cells [6] = assay: Transduction assay, β-gal titer on NIH3T3 cells; format: cell-based; conditions: WT = 100
[7] = test system: XC6 cell co-cultured with env-transfected 293T cells; assay: End point cell-to-cell fusion assay, 293T/XC6 co-culture; conditions: relative fusion efficiency, WT = 100
Procedure: Viral particles were obtained from 293T cells transfected transiently (n=3−5) with the expression plasmids for env, gag-pol, and β-gal, with wild type or mutant (616*, 601*, 598*, 595SR*, 578*, GLA ecto) env. Transduction efficiency of these virions (white bars=titers) was tested on NIH3T3 cells. The Env fusogenicity (filled bars =% fusion) was measured by expressing Env only in 293T cells. The indicator XC6 cells were added 24 hours post-transfection, were fixed 12 hours later and scored microscopically on ten 2 mm^2 grids for syncytia (cells with four or more nuclei).
Cell-To-Cell Fusion Assays For the end point fusion assay, 5×10^5 XC6 cells were added to the env transfected 293 T cells 20 hrs. post-transfection, and stained with methylene blue (0.01% in methanol) at about 36 hours post-transfection for syncytia (cells with 4 or more nuclei) scoring.
The end point fusion assay measures env-induced cell-to-cell fusion between env-transfected 293T cells and the ecotropic receptor expressing XC cells at 36 hrs post-transfection.

[8] = test system: env-transfected 293T cells; assay: Cell surface envelope protein expression by indirect immunofluorescence; conditions: relative, WT = 100
Procedure: NIH3T3 cells (1H10^5) , 293T or 293/12 (1H10^6) per 60 mm2 plates were transfected according to the Ca(PO4)2 transfection protocol of 5′-3′ Inc. (Boulder, Colo.) (day 1). For cell surface expression and co-culture experiments, 15 μg env expression plasmid was used.
Cell Surface Expression And The Analysis Of Viral Envelope Particle Incorporation Assays were done as described in Januszeski, et al., J. Virol., Vol. 71, pgs.

Compound	% K+ - Release POPC:POPG1:1 [1] [%]	% K+ - Release POPC:POPG,3:1 [1] [%]	% K+ - Release POPC [1] [%]	also measured
598-611: peptide of MoMuLV env residues 598-611 (ILNRLVQFVKDRIS; UniProt P03385 631-644, looked up, fragment) [Peptide 598-611]	22	13		
598-616 D608C: peptide 598-616 with D608C substitution (ILNRLVQFVKCRISVVQAL; UniProt P03385 631-649, looked up, variant D608C)	11	7	5	
598-616 F605C: peptide 598-616 with F605C substitution (ILNRLVQCVKDRISVVQAL; UniProt P03385 631-649, looked up, variant F605C)	7	4	8	
598-616 Q604C: peptide 598-616 with Q604C substitution (ILNRLVCFVKDRISVVQAL; UniProt P03385 631-649, looked up, variant Q604C)	28	20	29	
598-616 R601C: peptide 598-616 with R601C substitution (ILNCLVQFVKDRISVVQAL; UniProt P03385 631-649, looked up, variant R601C)	13	10	32	
598-616 R609A: peptide 598-616 with Arg 609 Ala mutation (ILNRLVQFVKDAISVVQAL; UniProt P03385 631-649, looked up, variant R609A)	0	0	11	loss of K+ release relative to wild type peptide 598-616 [2]: 75%; % K+-release [2]: 9.9 ± 1.8%
598-632 Q604C: peptide 598-632 with Q604C substitution	31	30	6	
598-632: peptide representing the whole cytoplasmic tail region (598-632) [Peptide 598-632]				secondary structure by CD (in words) [3]: higher helical content in the presence of membrane vesicles than the peptide 598-616 alone; aggregation state by EPR (in words) [4]: monomeric association with the membrane
602-616: peptide of MoMuLV env residues 602-616 (LVQFVKDRISVVQAL; UniProt P03385 635-649, looked up, fragment) [Peptide 602-616]	5	4	2	
CC[C@H](C)[C@H](NC(=O)CN)C(=O)NCC(=O)N[C@@H](C)C(=O)N[C@H](C(=O)N[C@@H](CC(C)C)C(=O)N[C@@H](CCCCN)C(=O)N[C@H](C(=O)N[C@@H](CC(C)C)C(=O)N[C@H](C(=O)N[C@H](C(=O)NCC(=O)N[C@@H](CC(C)C)C(=O)N1CCC[C@H]1C(=O)N[C@@H](C)C(=O)N[C@@H](CC(C)C)C(=O)N[C@H](C(=O)N[C@@H](CO)C(=O)N[C@@H](Cc1c[nH]c2ccccc12)C(=O)N[C@H](C(=O)N[C@@H](CCCCN)C(=O)N[C@@H](CCCNC(=N)N)C(=O)N[C@@H](CCCCN)C(=O)N[C@@H](CCCNC(=N)N)C(=O)N[C@@H](CCC(N)=O)C(=O)N[C@@H](CCC(N)=O)C(N)=O)[C@@H](C)CC)[C@@H](C)CC)[C@@H](C)O)[C@@H](C)O)C(C)C)C(C)C [melittin, reference compound]	27	31	31	K+ content release ([2]; 10 μM peptide): 31%; % K+-release [2]: 30.9 ± 2.1%
ILNRLVQFVKDRISVVQAL (Moloney murine sarcoma virus) [Peptide 598-616]	24	13	9	K+ content release ([2]; 10 μM peptide): 29%; K+ content release ([2]; 30 μM peptide, data not shown): about 70%; % K+-release [2]: 29.3 ± 3.6%; estimated percent α-helicity ([3]; 50 μM peptide in presence of liposomes, lipid to peptide 100:1): ~60%; secondary structure by CD (in words) [3]: becomes α-helical; aggregation state by EPR (in words) [4]: monomeric association with the membrane
Magainin [reference compound]	51	43	8	
Triton X-100 [reference compound]	100	100	100	% K+-release [2]: 100%
V606-R1 peptide: nitroxide-labeled peptide 598-616 V606C(R1) (ILNRLVQFC(R1)KDRISVVQAL; reading uncertain; UniProt P03385 631-649, looked up, variant V606C)				contribution from the unbound peptide ([4]; upon addition to liposomes, judged from EPR line shapes): less than 1%
WT: wild type MoMuLV ecotropic envelope protein				Fusion NIH3T (NIH3T3 cells [5]): 0; Titer (relative β-gal titer) (NIH3T3 cells [6]): 100; Fusion 293T/XC6 [7]: 100; Cell Surface Expression [8]: 100

Source: US20020058020A1, “Isolated amphiphilic peptides derived from the cytoplasmic tail of viral envelope proteins” (priority 1999, published 2002)
